Earlier results in patent US20250367363A1, “METHODS OF LOCAL IRRIGATION FOR TREATING INFECTIONS” (Osteal Therapeutics, Inc., priority 2023, published 2025).
Where two headings read alike, the source gives them in different places. *1 amine or outer side, *2 acyl side, *3 side chain or, on linkers, in order; H or OH if unused. Where a SMILES comes first, the peptide text is derived from it. Bridges are numbered along the chain shown (N, C = ends). [ ]: non-standard residue; d: D form. The star is where a group is joined. hTyr(3S-OH,4S-OH,3'-OSO3H) = N[C@H](C(=O)O)[C@H](O)[C@@H](O)c1ccc(O)c(OS(=O)(=O)O)c1; pTerphenylCO(4''-OnC5H11) = CCCCCOc1ccc(-c2ccc(-c3ccc(C(=O)*)cc3)cc2)cc1; Orn(4R-OH,5R-OH) = O=C([C@H](C[C@@H](O)[C@@H](O)N[*:3])N[*:1])[*:2]; hTyr(3S-OH,4S-OH) = N[C@H](C(=O)O)[C@H](O)[C@@H](O)c1ccc(O)cc1; Pro(3S-OH,4S-Me) = C[C@H]1CN[C@H](C(=O)O)[C@H]1O; X1 = CCCCCOc1ccc(-c2cc(-c3ccc(C(=O)*)cc3)no2)cc1; Gln(3R-OH) = NC(=O)C[C@@H](O)[C@H](N)C(=O)O; Hyp = O=C(O)[C@@H]1C[C@@H](O)CN1

How the values were obtained:
[1] = systemic

Row | Compound | Safe Daily Dose ([1]; Table 2 antibiotics) | Safe IV Concentration (Table 2 antibiotics) [mg/mL] | Safe Daily Dose ([1]; Table 3 antifungal agents) [mg] | Safe IV Concentration (Table 3 antifungal agents) [mg/mL]
1 | CN[C@H](CC(C)C)C(=O)N[C@H]1C(=O)N[C@@H](CC(N)=O)C(=O)N[C@H]2C(=O)N[C@H]3C(=O)N[C@H](C(=O)N[C@H](C(=O)O)c4cc(O)cc(O)c4-c4cc3ccc4O)[C@H](O)c3ccc(c(Cl)c3)Oc3cc2cc(c3O[C@@H]2O[C@H](CO)[C@@H](O)[C@H](O)[C@H]2O[C@H]2C[C@](C)(N)[C@H](O)[C@H](C)O2)Oc2ccc(cc2Cl)[C@H]1O [Vancomycin] | 45 to 60 mg/kg/day | 5 |  | 
2 | CC[C@H](C)C[C@H](C)CCCCCCCCC(=O)N[C@H]1C[C@@H](O)[C@@H](NCCN)NC(=O)[C@@H]2[C@@H](O)CCN2C(=O)[C@H]([C@H](O)CCN)NC(=O)[C@H]([C@H](O)[C@@H](O)c2ccc(O)cc2)NC(=O)[C@@H]2C[C@@H](O)CN2C(=O)[C@H]([C@@H](C)O)NC1=O [Caspofungin] |  |  | 70 | 0.5
3 | C[C@@H](c1nc(-c2ccc(C#N)cc2)cs1)[C@](O)(Cn1cncn1)c1cc(F)ccc1F [Isavuconazole] |  |  | 1116 | 1.488
4 | C[C@@H]1[C@H](O)[C@@H](C)/C=C/C=C/C=C/C=C/C=C/C=C/C=C/[C@H](O[C@@H]2O[C@H](C)[C@@H](O)[C@H](N)[C@@H]2O)C[C@@H]2O[C@](O)(C[C@@H](O)C[C@@H](O)[C@H](O)CC[C@@H](O)C[C@@H](O)CC(=O)O[C@H]1C)C[C@H](O)[C@H]2C(=O)O [Amphotericin B] |  |  |  | 0.25
5 | CCCCCOc1ccc(-c2cc(-c3ccc(C(=O)N[C@H]4C[C@@H](O)[C@@H](O)NC(=O)[C@@H]5[C@@H](O)[C@@H](C)CN5C(=O)[C@H]([C@H](O)CC(N)=O)NC(=O)[C@H]([C@H](O)[C@@H](O)c5ccc(O)c(OS(=O)(=O)O)c5)NC(=O)[C@@H]5C[C@@H](O)CN5C(=O)[C@H]([C@@H](C)O)NC4=O)cc3)no2)cc1 [Micafungin] (X1-[Orn(4R-OH,5R-OH)]T[Hyp][hTyr(3S-OH,4S-OH,3'-OSO3H)][Gln(3R-OH)][Pro(3S-OH,4S-Me)]; lactam 1-C) |  |  | 150 | 1.5
6 | CCCCCOc1ccc(-c2ccc(-c3ccc(C(=O)N[C@H]4C[C@@H](O)[C@@H](O)NC(=O)[C@@H]5[C@@H](O)[C@@H](C)CN5C(=O)[C@H]([C@@H](C)O)NC(=O)[C@H]([C@H](O)[C@@H](O)c5ccc(O)cc5)NC(=O)[C@@H]5C[C@@H](O)CN5C(=O)[C@H]([C@@H](C)O)NC4=O)cc3)cc2)cc1 [Anidulafungin] ({pTerphenylCO(4''-OnC5H11)}-[Orn(4R-OH,5R-OH)]T[Hyp][hTyr(3S-OH,4S-OH)]T[Pro(3S-OH,4S-Me)]; lactam 1-C) |  |  | 200 | 1

Now from value to compound, other results behind:

Row | Safe Daily Dose ([1]; Table 2 antibiotics) | Safe IV Concentration (Table 2 antibiotics) [mg/mL] | Compound | Safe Daily Dose ([1]; Table 3 antifungal agents) [mg] | Safe IV Concentration (Table 3 antifungal agents) [mg/mL]
7 | 6 g/day | 330 | Cc1nnc(SCC2=C(C(=O)O)N3C(=O)[C@@H](NC(=O)Cn4cnnn4)[C@H]3SC2)s1 [Cefazolin] |  | 
8 | 7 mg/kg/day | 0.2 | Gentamicin |  | 
9 | 1.2 g/day | 2 | O=C(O)c1cn(C2CC2)c2cc(N3CCNCC3)c(F)cc2c1=O [Ciprofloxacin] |  | 
10 | 2.7 g/day | 18 | CCC[C@@H]1C[C@@H](C(=O)N[C@@H]([C@H]2O[C@H](SC)[C@H](O)[C@@H](O)[C@H]2O)[C@H](C)Cl)N(C)C1 [Clindamycin] |  | 
11 | 6 g/day | 40 | CO/N=C(\C(=O)N[C@@H]1C(=O)N2C(C(=O)[O-])=C(C[N+]3(C)CCCC3)CS[C@H]12)c1csc(N)n1 [Cefepime] |  | 
